Source: ChEMBL document CHEMBL3507680, “University of Dundee, Gates Library screen for HepG2 cell viability”

Assay: Human HepG2 cell viability assay in 384 well format
Type: toxicity, cell-based
Design: dose 125 nL, time 70.5 hour; concentration not given beside the values
Conditions: HepG2 cells, read-out: Inhibition

| SMILES | cytotoxicity at 70.5 h [%] |
| --- | --- |
| c1ccc(NCc2cn3c(n2)CN(Cc2cccs2)CC3)nc1 | 8.31 |
| O=C(Nc1ccccn1)C1=NN(c2ccccc2)C(=O)CN1 | 45.9 |
| Cn1cc(C(=O)N2CCCC(n3cncn3)C2)ccc1=O (stereo not given) | -9.74 |
| CCn1cc(S(=O)(=O)N2CCN(S(=O)(=O)c3ccc(Br)s3)CC2)cn1 | -12 |
| COc1cc(CNc2nc3c(c(=O)[nH]2)CCNC3)cc(OC)c1OC | -6.47 |
| Cc1ncc2c(n1)CN(CCCc1nc3ccccc3o1)CC2 | -0.537 |
| O=C1COC2(CCN(C(=O)C3CC=CC3)CC2)CN1Cc1cccnc1 | 12.1 |
| COCCN(C)CC(=O)N1C[C@@H](C)[C@](O)(C(C)C)C1 | -1.28 |
| O[C@H]1[C@H](NCCc2ccccn2)c2ccccc2C12CCNCC2 | 20.6 |
| CCn1cncc1CN1CCc2nc3sccc3c(=O)n2CC1 | -5.29 |
| Cc1cc(N(C)C)nc(C2(C)CCCN2C(=O)c2ccccc2)n1 (stereo not given) | -8.94 |
| CCN(Cc1noc(CC(C)C)n1)Cc1cc2ccc(F)cc2[nH]c1=O | 0.157 |
| CCN1CCC2(C=C(C(=O)N(C)C)c3ccccc32)CC1 | 0.372 |
| COCCOc1ncccc1C(=O)N(C)c1ccc(OC)c(OC)c1 | -11.7 |
| CCCOc1cc(CNC(=O)Nc2cccc(C(C)=O)c2)ccn1 | -0.91 |
| CCc1noc(CSc2n[nH]c(-c3ccccn3)n2)n1 | -3.21 |
| Cc1nc(C)n(CC2CCCCN2Cc2nnc(-c3ccco3)o2)n1 (stereo not given) | -6.54 |
| COCCN(Cc1ccoc1)C(=O)c1c(F)cccc1F | -3.64 |
| Cc1cc(C)c(CNC(=O)NC2COc3ccccc3C2)c(=O)[nH]1 (stereo not given) | -8.39 |
| COc1ccc(CN(Cc2cccnc2)CC2CCCO2)c(OC)c1 (stereo not given) | -5.79 |
| Cc1nc(CNC(=O)CC2C(=O)NCCN2Cc2ccccc2C)n[nH]1 (stereo not given) | -0.629 |
| COC(CNC(=O)c1cn(C)nn1)c1ccc(C)s1 (stereo not given) | -6.13 |
| CCC(C)Nc1ccc2c(c1)C1(CCOCC1)C(=O)N2c1ccccc1 (stereo not given) | -7.71 |

| SMILES | cytotoxicity at 70.5 h [%] |
| --- | --- |
| Cc1ccc(NC2CCN(C(=O)CCCc3ccccn3)CC2)nn1 | 9.21 |
| COCCCN1CCN(C(=O)C(c2cccc(F)c2)N(C)C)CC1 (stereo not given) | -5.78 |
| CN(Cc1ccon1)c1nc(-c2ccccn2)nc2c1CCNCC2 | 12.3 |
| CS(=O)(=O)N[C@@H]1CN(Cc2ccccc2)C[C@@H]2CCCO[C@@H]21 | -4.64 |
| Cc1nc(N)ncc1C(=O)N1CCCC1(C)C(=O)N(C)C (stereo not given) | -3.98 |
| CCc1ccc2c(C3CN(S(C)(=O)=O)C3)ncn2c1 | 9.29 |
| CN(Cc1ccccc1)C(=O)CN1CCOC(Cn2cncn2)C1 (stereo not given) | -6.53 |
| Cn1cc(C2CC(=O)NC23CCN(C(=O)c2ccc[nH]2)CC3)cn1 (stereo not given) | -1.53 |
| CC(C)CN1CCCC1c1ccc(C(=O)Nc2cc[nH]n2)s1 (stereo not given) | -0.844 |
| CN(C)CCO[C@@H]1CC[C@H]2[C@H]1OCCN2C(=O)c1ccccc1F | -10.8 |
| COc1ccc(Cl)cc1CN1CC(n2cccn2)C1 | -4.9 |
| CCn1ccc(-c2nnc(SCC(=O)Nc3ccc(C)cc3)n2CC)n1 | -13.9 |
| CSCc1cc(F)ccc1CNC(=O)N1CCC[C@@H]1CO | -4.06 |
| COCCN(Cc1ccc(F)cc1Cl)C(=O)c1ccncc1 | -6.63 |
| COC(=O)c1ccc(NC(=O)CCc2ccco2)cc1 | -8.07 |
| COc1ncccc1CN1C[C@@H]2COC[C@]2(COCC2CC2)C1 | -11.6 |
| CN(C)C(=O)c1ccccc1NC(=O)N(C)Cc1ccccc1O | 4.11 |
| O=C(O)[C@@H]1CCN(C(=O)Cc2ccccn2)[C@@H]1c1ccc(F)cc1 | -7.95 |
| CCc1nc(CC)n(CC(=O)NCc2ccccc2C)n1 | -10.6 |
| CC(NC(=O)Nc1nncs1)C(=O)NC1CCCC1 (stereo not given) | -8.75 |
| NS(=O)(=O)c1ccc(CNCC(=O)NCc2ccc(Cl)cc2Cl)cc1 | -8.64 |
| Cc1cccc(CN2CCCC(O)(CNCCc3c[nH]cn3)C2=O)c1 (stereo not given) | 9.08 |
| Cc1ccc(CN2CC3(CCN(C(=O)Cc4ccc(Cl)cc4)C3)C2)o1 | -5.73 |

| SMILES | cytotoxicity at 70.5 h [%] |
| --- | --- |
| Cc1cccc(OCC(O)CN2CCC(Cn3cccn3)CC2)c1 (stereo not given) | 22.2 |
| COc1cccc(CC2CCCN2CCCC#N)c1 (stereo not given) | -1.21 |
| O=C(C1CCOCC1)N1CCO[C@H]2[C@H](Oc3cccnc3)CC[C@@H]21 | -3.29 |
| CCS(=O)(=O)NCc1nc(C)cc(N2CCCCC2)n1 | -7.45 |
| FC(F)(F)c1n[nH]c2c1CN(CCc1ccccn1)CC2 | 13.8 |
| CCn1cnnc1CNC(=O)N1CCC(C(=O)NC)CC1 | 1.9 |
| Cc1ccc(CNCc2ccc(-n3nc(C)cc3C)nc2)cc1 | -6.83 |
| COC(=O)CCN(CC1CCOC1)C1CC1 (stereo not given) | 0.428 |
| OCC(CO)Nc1nc(C(F)F)nc2ccccc12 | -3.24 |
| CCCN(Cc1ccccc1O)C(=O)Nc1cnn(CCOC)c1 | -12.8 |
| O=c1oc(-c2ccc(F)cc2)nn1CN1CCN(C2CCCC2)CC1 | -9.32 |
| CC(C)N1CCOCC2(CCCN(C(=O)c3cncn3C)C2)C1 (stereo not given) | -8.05 |
| CNS(=O)(=O)CC(=O)N1CCCc2cc(Br)ccc21 | -88.8 |
| O=C(NCc1nc(C2CC2)no1)N1CCOC(c2cccc(F)c2)C1 (stereo not given) | 0.958 |
| Cc1nn(C)c2nc(NCCCN3CCCC(C(N)=O)C3)sc12 (stereo not given) | -8.69 |
| O=c1c2sccc2ncn1Cc1cc(C2CC2)[nH]n1 | -8.84 |
| Cc1c(C(=O)N2CC(O)C2)nnn1-c1cccc2cnccc12 | -8.03 |
| CC(C)C(C(=O)N1CCN(Cc2cscn2)CC1)n1cncn1 (stereo not given) | -1.99 |
| CCOCCOC(C)C(=O)NCc1ccc(N2CCCCC2)cc1 (stereo not given) | 0.804 |
| O=C(NC1CCc2c(ccc(=O)n2CC2CC2)C1)c1ccsc1 (stereo not given) | -1.91 |
| O=C(NCCc1cccnc1)NC1CCOC2(CCCCC2)C1 (stereo not given) | 17.8 |
| NC(c1ccc(F)cc1)c1cccs1 (stereo not given) | 6.42 |
| Cc1ccc(CCC(=O)N2CCCC(n3cncn3)C2)c(C)c1 (stereo not given) | -3.58 |

| SMILES | cytotoxicity at 70.5 h [%] |
| --- | --- |
| CCc1n[nH]c(C2CN(C(=O)c3ccnc(C4CC4)n3)CCO2)n1 (stereo not given) | -5.63 |
| CCC(C(=O)NCCc1coc(-c2ccc(C)cc2)n1)N(C)C (stereo not given) | 3.11 |
| CS(=O)(=O)CC1CCCN(c2ncnc3c2Cc2ccccc2OC3)C1 (stereo not given) | -9.52 |
| COCC1CN(C(=O)CS(C)(=O)=O)Cc2ncn(CC3CC3)c21 (stereo not given) | 1.88 |
| OCCCc1nncn1-c1cccc(C(F)(F)F)c1 | -1.23 |
| Cc1cccn2c(=O)cc(CN3CCCC3Cn3cncn3)nc12 (stereo not given) | -5.2 |
| COc1cccc(CNC(=O)c2nc3c(o2)CN(C(=O)N(C)C)C3)c1 | -8.42 |
| COCCNC(=O)c1ccc2ccc(N(C)CC3CC3)n2c1 | -5.92 |
| CC(C)c1nccn1C1CCCN(C(=O)c2cn3cccnc3n2)C1 (stereo not given) | -3.43 |
| O=C(c1cnccn1)N1CCN2C[C@H](OCC3CC3)C[C@H]2C1 | 4.98 |
| Cc1ccc(C(N)c2cccc(S(C)(=O)=O)c2)cc1 (stereo not given) | 4.98 |
| CCc1ccccc1-c1cc(C)nc(N)n1 | -7.75 |
| COc1cc(CNC2CCCc3c2cnn3C)cc(OC)c1 (stereo not given) | -16.8 |
| O=c1cc(CN(CCO)C2CC2)nc2ccccn12 | -3.82 |
| COc1ccccc1-c1nnc([C@H]2CCN(C(=O)C3CC3)C2)o1 | 11.5 |
| O=C(NC[C@H]1CCCN1)c1cc(COc2cccc(C(F)(F)F)c2)[nH]n1 | -2.98 |
| CCC(C)(C)NC(=O)C1CC(=O)N(CC2CC2)C1 (stereo not given) | 27.7 |
| CCCOCC(=O)NC1CCc2nc(C)cn2C1 (stereo not given) | -2.67 |
| COc1ncccc1CNC(=O)Nc1ccc(N(C)C)nc1 | -12.5 |
| Cc1cc(CC(C)Nc2nc(-c3cccnc3)nc3c2CNC3)[nH]n1 (stereo not given) | -12 |
| O=C1CC(c2ccncc2)C2(CCN(Cc3nccs3)CC2)N1 (stereo not given) | -7.32 |
| Cc1ccc(CN(C)C(=O)C(C)n2ccnc2C(C)C)o1 (stereo not given) | -18.9 |
| Cc1cc(C(F)(F)F)nc(CNC(=O)CCCN2CCCCC2)n1 | -2.62 |

| SMILES | cytotoxicity at 70.5 h [%] |
| --- | --- |
| Cc1ncsc1C(=O)NC1CCN(Cc2cccnc2)CC1 | 0.341 |
| CSc1ccc(CN(CCO)C(=O)CCc2cccc(F)c2)cc1 | -15.9 |
| CN(C)c1ncccc1CN1CCOC(C(=O)Nc2ccccc2)C1 (stereo not given) | -7.2 |
| Cc1n[nH]cc1CNCc1cccc(OCC(F)(F)F)c1 | -0.995 |
| CC(Cn1cccn1)NC(=O)N1CCC(NS(C)(=O)=O)CC1 (stereo not given) | -17.2 |
| O=C(NC1CC1)C1CCN(Cn2nc(-c3ccccc3)oc2=O)CC1 | 25.1 |
| CCCn1ccnc1CN1CCCC1c1ccccn1 (stereo not given) | -4.45 |
| O=C1CSC(c2ccc(O)cc2)c2c(n(C3CCOCC3)[nH]c2=O)N1 (stereo not given) | -23.1 |
| CCOCc1ccc(NCc2cnc(N3CCN(C)CC3)nc2)cc1 | -3.75 |
| CC(C)(C)NCC(=O)N1CCCC(n2ccnc2)C1 (stereo not given) | -9.3 |
| CCN(CCNC(=O)c1ccccc1OCCOC)C1CC1 | 54.8 |
| O=C(O)c1ccc(CCNC(=O)C2(O)Cc3ccccc3C2)cc1 | -12.7 |
| CC1CCC(NC(=O)c2nn(C)cc2I)CC1 (stereo not given) | -7.74 |
| Cc1nccn1CCCN1CCCC(c2nccn2C)C1 (stereo not given) | 21.3 |
| CC(C)(C)c1nnc(CN2CCOC(Cn3cccn3)C2)o1 (stereo not given) | 5.79 |
| Cc1cnc(-c2nc(O)c3c(n2)CN(C(=O)C2CC2)CC3)cn1 | -4.33 |
| CC(CO)(CO)NC(=O)C1CCC(=O)N(Cc2ccc(Cl)cc2)C1 (stereo not given) | -2.86 |
| O=C(N1CCCC1)N1C[C@H]2CCC[C@@]2(COCc2ccccn2)C1 | -10.8 |
| Brc1cnc(NCCCOCC2CCOCC2)nc1 | -5.42 |
| Cc1ccc(CS(=O)(=O)Cc2nc(N)nc(N(C)C)n2)cc1 | 0.995 |
| CCn1ncc2c1CN(CCc1cccc(Cl)c1)CC2COC (stereo not given) | -8.31 |
| CC(C)c1ncc2c(n1)CN(Cc1cccc3c1OCCO3)CC2 | 0.0459 |
| CC(C)C1CCC(N2CCN(CCCS(C)(=O)=O)CC2)CC1 (stereo not given) | -3.77 |
